Measurements taken from US7018456B2, “Phthalocyanine compound, water-base ink composition and colored material” (Nippon Kayaku Kabushiki Kaisha, priority 2002, dated 2006).

Experiment: Water-solubility of the phthalocyanine compound
Format: physicochemical
Conditions: at the ordinary temperature
Procedure: 300 parts of wet cake containing 53.6 parts of tetramino copper phthalocyanine (0.085 mol) were suspended in 360 parts of water in a four-neck flask equipped with a condenser, followed by heating to 60° C. with stirring, dropping 9.5 parts of acetic anhydride (0.093 mol) at the same temperature and stirring at the same temperature for 5 hours. Successively 0.2 parts of hydroquinone and 95.4 parts of acrylic acid […] were added, followed by heating to 80° C. and stirring with keeping the same temperature for 12 hours. Judging from the reaction, mixture of several compounds though it is, the reaction product is found to correspond to a compound which comprises tetramino phthalocyanine having on average one introduced acyl group (acetylamino) and three introduced carboxyethyl per molecule, namely the desired monoacetylamino(2-tricarboxyethylamino) copper phthalocyanine.

Substance: monoacetylamino(2-tricarboxyethylamino) copper phthalocyanine [Example 5]
- water-solubility: about 10 % by mass
